Laboratory results from US7737250B2, “Peptides for treating axonal damage, inhibition of neurotransmitter release and pain transmission, and blocking calcium influx in neurons” (Mount Sinai School of Medicine of New York University, priority 2003, dated 2010).

Experiments:
[1] = test system: mouse cerebellar granular neurons; experiment: Neurite outgrowth assay; format: cell-based; settings: 30 μg/ml peptide; for average neurite length: 24 h in culture
Protocol: For neurite outgrowth assays, chick Ng-CAM was purified from chick brain using an antibody-based affinity column according to techniques well known in the art. The anti-Ng-CAM antibody was antibody 8D9 (Developmental Studies Hybridoma Bank, University of Iowa). Then purified chick Ng-CAM (50 μg/ml) or mouse laminin (Invitrogen, 100 μg/ml) was spotted on a 35 mm plastic culture dish at room temperature (RT) for 1 hr. After washing with PBS, the plastic surface was blocked with 1% Bovine Serum Albumin in phosphate buffered saline (13SA/PBS) at RT. Negative control dishes were coated with 1% Bovine Serum Albumin in phosphate buffered saline (BSA/PBS) at RT.
Cerebellar cells were prepared from postnatal day 4 (P4) mouse by trypsinization followed by trituration. Postnatal day 4 (P4) mouse cerebellum was minced in Calcium/Magnesium-free phosphate buffer (Ca/Mg-free PBS). Minced cerebellum was then treated with 0.05% Trypsin (Gibco) in Ca/Mg-free PBS for 15 minutes at 37° C. Trypsinization was halted by addition of 10% Fetal Calf Serum (Hyclone). Trypsinized cells were then triturated 5 times with a fire-polished Pasteur pipette to dissociate the cells. The remaining cell clumps were allowed to settle, and the suspended cells were plated and maintained for use in the neurite outgrowth assays.
Cultured cerebellar cells were resuspended in BME/B-27 medium (BME medium plus B-27 supplement, both from Gibco) supplemented with penicillin/streptomycin (Gibco) to a cell density of 5×10^5 cells/ml. Then 250 μl of this cell suspension was plated on the dishes. AP-YF or AP-Scramble peptides dissolved in Hank's Balanced Salt Solution (Gibco) were added to the plated cells at final concentration of 30 μg/ml. Cultures were incubated at 37° C. for 24 hrs in 5% CO2. These cultures were fixed with 4% paraformaldehyde and images were collected on a Zeiss Axiovert 100TV microscope using a 100× plan neofluor objective. Neurite outgrowth measurements were performed using NIH image software. Data was expressed as average neurite length in μm (+/− standard deviation). P-values were determined using Student's t-test analysis. Microsoft Excel was used to plot the data as % neurites of length greater than Xpm versus neurite length X (in μm).
Mouse cerebellar granular neurons were plated on tissue culture dishes coated with chick Ng-CAM, a chick homolog of L1-CAM, or on tissue culture dishes coated with mouse laminin. The Ng-CAM substrate interacts with cell-surface L1-CAM, while laminin substrate interacts with cell surface integrins and therefore serves as the negative control. These cultures were treated with either AP-YF or AP-Scramble peptides. After 24 hours of culture, the neurons were fixed and neurite outgrowth lengths w-ere measured by NIH image software degree (in μm).

Cav2.2 channels = experiment: Calcium channel distribution by confocal indirect immunofluorescence in DRG neurons; format: cell-based, chicken; settings: DRG neurons pretreated with peptide 1.4 μg/ml, 30 min
Protocol: Antibodies: Primary antibody: rabbit anti-pan α1 binds Ca channel (1:200 dilution, [1.5 μg/ml) [Alomone Labs; Jerusalem, Israel]. Secondary antibodies: (1:200 dilution, 10 μg/ml): tetramenthylrhodamine conjugated goat anti-rabbit IgG (H+L) [Molecular Probes; Eugene, OR]
Dorsal root ganglia were dissected from 11 to 12 day old embryos, incubated for 30 min in saline containing nominal Ca 2^+ and Mg 2^+, and 0.05% collagenase (type A, Boehringer Mannheim). Ganglia were dissociated mechanically into single cells by trituration in culture medium containing Dulbecco's modified Eagle's medium supplemented with 10% horse serum, 5% chicken embryo extract, penicillin, streptomycin, glutamine, and nerve growth factor. Cells were plated at a density of ˜50,000 cells/collagen-coated 35 mm tissue culture dish and studied between 1 and 3 days in vitro.
Immunohistochemistry: Cultures grown on poly-L-lysine cover glass slips were exposed to saline or 100 mM NE (norepinephrine), fixed and permeabilized in methanol at −20° C. for 15-minutes or 20 second (for residual experiment) followed by 3×5-min washes in PHEM Buffer [60 mM PIPES, 25 mM HEPES, 10 mM EGTA, 2 mM MgCl2, pH 6.9]. Cells were alternatively fixed with 4% paraformaldehyde in PHEM buffer, pH 6.9 for 20-min, washed 3×3-min with PHEM buffer and permeabilization with 0.1% Triton X-100/PHEM buffer for 3-min. Blocking was performed using 5% BSA in PHEM Buffer for 1-h at 4 C. Following overnight incubation with primary antibody in 1% BSA and 1% normal goat sera in PHEM Buffer at 4 C. After washes with PHEM Buffer, cover slips were incubated with fluorophore-conjugated secondary antibodies in 1% BSA PHEM Buffer for 1.5 hours at room temperature in the dark. […]
Images of fixed cells were obtained with a pinhole setting of 0.95 using a UV 100× 1.4NA oil Leica objective lens and an optical zoom between 1.4 and 2× at slow acquisition speed with 4× frame averaging accumulation. The number of sections was calculated by the Leica TCS software based on acquisition of sections at 240 nm intervals in the Z-plane. […]

[2] = test system: secretion of Substance P from DRG neurons; experiment: Substance P secretion, single-cell immunoblot assay; format: cell-based, chick; settings: DRG neurons pre-incubated with peptide 1.4 μg/ml for 1 hour
Protocol: Secretion Assay: Secretion of substance P was analyzed using the single-cell immunoblot method adapted from Huang and Neher (Huang, L. Y., Neher, E. (1996) Neuron. 17, 135-45.). Briefly, polyvinylidene difluoride transfer membranes (Immobilon P brand from Millipore) were cut to […] and placed in a 6-well plate. Membranes were pre-wetted with methanol for 20 s, rinsed with distilled water and allowed to equilibrate in test solution for >1 hr. In parallel, DRG cells plated were incubated with media containing AP-YF or AP-Scr (1.4 μg/ml) for 1 hour. This media was removed, and replaced with 70 μl of test solution. The membranes were then placed on top of the cells, and allowed to incubate at 37° C. in a humidified CO2 incubator for 30 min. The membranes were then carefully removed from the cells and allowed to dry completely and fixed with powdered paraformaldehyde at 80° C. for 1 hr. Fixed membranes were rinsed in PBS (1 mM KH2PO4, 10 mM Na2HPO4, 137 mM NaCl, 2.7 mM KCl) containing 1% Triton X-100 (PBS-T) to remove excess paraformaldehyde, and blocked with PBS-T containing 3% fetal bovine serum (FBS) for 30 min at room temperature. The membranes were incubated with anti-substance P antibody (Santa Cruz) at 1:200 dilution in PBS-T with 1% FBS overnight in 37° C. incubator. The next day the membranes were developed with a peroxidase/diamninobenzidine (DAB) reaction using the ABC staining kit from Santa Cruz Biotechnology. Images were taken using a CCD camera, and analyzed using Photoshop and NIH image software. Data were plotted by assigning an upper and lower limit of gray values and plotting % of cells at a range within those limits. By plotting graphs as % of cells in a dynamic range, multiple experimental runs were pooled.

Row | Sequence | neurite extension above control levels ([1]; on Ng-CAM substrate, 24 h, vs AP-Scramble) [%] | average neurite length ([1]; on Ng-CAM substrate) [μm] | axon extension on laminin ([1]; on laminin substrate, 24 h, vs AP-Scramble) | Cav2.2 channel distribution (plasma membrane vs cytoplasm) (Cav2.2 channels) | high K^+-induced secretion of Substance P [2]
1 | RQIKIWFQNRRMKWKKQFNEDGSFIGQF [AP-YF] | 55 | 32 | not significantly affected | induces removal of Cav2.2 channels | blocks high K^+-induced secretion
2 | RQIKIWFQNRRMKWKKFQGIFSGDENFQ [AP-Scramble] | – | 21 | – | no effect | did not affect secretion significantly
